Measured values taken from patent US20030152910A1, “Method for identification and quantification of kinase inhibitors” (priority 1999, published 2003).
Several values for one entry are separate records, joined by “and”; a condition that tells them apart may be missing. Identical values can stand only once. Like-named read-outs stand apart in the source and are kept apart here.

Tests used:
[1] = tested on: 293 cells transfected with wild-type or mutant pUL97 (K355M catalytically inactive); assay type: cell-based, human; conditions: 5 nM to 500 nM inhibitor, GCV 5-40 μM, wild-type and mutant pUL97, LDH 5 d posttransfection
Description: If a test compound is capable of inhibiting the kinase, but additionally has a cytotoxic activity, no rescue from cell death would be observed. Thus, the method of the invention preferably comprises the additional step (e) distinguishing between (i) noncytotoxic test compounds having kinase inhibiting properties and (ii) test compounds having kinase inhibiting properties but additional cytotoxic side effects. Furthermore, the effect of a given test compound may be determined at several different concentrations of the test compound in order to obtain a more accurate information of the kinase inhibiting properties and possible unwanted cytotoxic side effects. […] In this manner, the concentration dependency and the target specificity of the inhibitory effect of the test compound and the concentration dependency of a possible cytotoxic effect may be determined together.
Substrate (e.g. ganciclovir) is then added in an appropriate concentration to transfected cells (as indicated in the diagram). […] As a measurement for cell death, either the colour conversion of the medium (containing phenol red as a pH indicator) can the quantified photometrically, or the LDH activity within the residual cell layer can be determined (resulting in low activities when extensive cell death has occurred). Other methods of quantification are also possible (e.g. measurement of cell proliferation). […]

[2] = target: T1, human cytomegalovirus UL97 protein kinase (Human cytomegalovirus, UniProt P16788); assay: UL97 in-cell-activity assay (transfected 293 cells + GCV; colour conversion / LDH read-out); assay type: cell-based
T1 construct: expressed in transfected cells
Protocol: Human embryonic kidney cells 293 (ATCC CRL-1573), as cultivated with DMEM medium containing 5% fetal calf serum (FCS), were harvested by trypsinization, rinsed with PBS and seeded in 96-well plates at a cell number of 20,000 per well.
Transfection (Lipofectamin Plus reagents, GibcoBRL) was performed at a cell layer confluency of 50-75%. For this, identical transfection conditions were chosen for 24 wells of the 96-well plate to obtain determinations over a 8-well line in triplicate. One transfection set-up for 24 wells was composed as follows:
Meanwhile, culture media of the 96-well plates were removed by the use of a multichannel pipette and a 50-μl volume of fresh DMEM-0% FCS was given in each well. Then, 25 μl of each transfection set-up was added per well. Plates were incubated for 5 h at 37° C. in a 5% CO2 atmosphere. Subsequent to this incubation, a 125-μl volume of DMEM-10% FCS was added per well and incubated over night at 37° C. in a 5% CO2 atmosphere.
Transfection media were removed from the cells by the use of a multichannel pipette. […]
Visual and photometric determinations of the colour conversion of the phenol red-supplemented culture medium was performed by the use of a computer scanner and an ELISA reader (OD 560 nm).
Measurement of the lactate dehydrogenase (LDH) acitivity in the residual cell layer was performed with the CytoTox 96 Non-Radioactive Cytotoxicity (Promega). […] Thereafter, 50 μl of stop buffer was added and the colour reaction was quantitated by the use of an ELISA reader (OD 490 nm). […]
Five days after addition of the substances, the read-out of signals was performed by the photometric quantification of the colour conversion of the culture medium and, for comparison, by the measurement of LDH activity in the residual cell layers. Qualitative/semi-quantitative illustrations are given by computer scanning figures in (a) for colour conversion, and in (b) for LDH activity. Quantitative values are presented as the results of photometric determinations in (c) for colour conversion, and in (d) for LDH activity. […]

[3] = tested on: UL97-transfected 293 cells (293UL); assay: Growth inhibition of 293UL cells by GCV (FIG. 11A); assay type: cell-based, human; conditions: for IC50: grown 90 h in presence of GCV
Protocol: 293 cells transfected with pUL97 expression construct (pcDNA3-UL97; see above under 2.1.) were grown for 14 d in presence of geneticin (750 μg/ml). Individual clones were isolated (minimal dilution), re-tested for geneticin resistance and for sensitivity to 100 μM GCV. Clones identified as geneticin resistant and GCV-sensitive were expanded and stored frozen in aliquots for further experiments, after having verified by Western blot their capacity to express UL97 protein.
293UL cells were routinely grown in DMEM supplemented with 10% FCS, glutamine (1%), pyruvate (1%), geneticin (final 0.5 mg G418/ml culture), and penicillin/streptomycin (1%). Medium was changed every 3-4 d, and cells were subcultured before reaching confluency by trypsin/EDTA treatment (exposure of adherent cells to 5 mg/ml trypsin and 2 mg/ml EDTA, dissolved in sterile 0.85% NaCl) and re-seeding in at least 5-fold dilution. Cells were maximally 10 times subcultured before a new frozen batch was used.
For routine antiproliferative assays, 293 UL cells were suspended at 13.8×10^3 cells/ml in complete medium, and 145 μl/well (2000 cells) of this suspension were seeded in 96-well flat-bottom plates (Nunclon #167008). After attachment of the cells for 24 h, drugs were added: All wells received 5 μl GCV (4 mM in complete medium, final concentration 100 μM), and each 3 wells received 50 μl compound (40 μM in complete medium+0.4% DMSO). A control series received 50 μl 40 μM compound only in the absence of GCV. Another control plate, which had received cells or medium only, was glutaraldehyde-fixed or frozen (see below) at the time of drug addition and stained for quantitation of cell density.
Cells were further incubated for 72 h and then analyzed for proliferation (staining with methylene blue or fluorescent dyes, see section 2.4).
A) UL97-transfected 293 cells 1,2,3,4: individual IC50 profiles (averages of triplicates); cells grown for 90 h in presence of GCV.

[4] = tested on: Non-transfected 293 cells devoid of UL97 kinase activity; assay: Growth inhibition of non-transfected 293 cells by GCV (FIG. 11B); assay type: cell-based, human

## CN[C@@H]1C[C@H]2O[C@@](C)([C@@H]1OC)n1c3ccccc3c3c4c(c5c6ccccc6n2c5c31)C(=O)NC4 [STP, staurosporine]
[1]
  inherent (nonspecific) cytotoxicity versus specific pUL97 inhibition: nonspecific cytotoxicity

## Cn1c2ccccc2c2c3c(c4c5ccccc5n(CCC#N)c4c21)CNC3=O [GÖ6976]
[2]; 5 nM and 50 nM inhibitor, GCV 2.5 and 5 μM, pl18neo-UL97, LDH activity after 5 days
  specific inhibition of UL97 activity: stronger at the 50-nM than at the 5-nM concentration
[2]; 50 nM inhibitor, GCV 1.25-160 μM, 5 days, colour conversion and LDH activity
  identification as UL97-specific inhibitor: identified as UL97-specific inhibitors
[2]; 500 nM inhibitor, GCV 2.5 and 5 μM, LDH activity after 5 days
  inhibition of UL97 activity at the highest concentration (decrease in LDH activity indicates cytotoxicity): markedly decreased

## Nc1nc(O)c2ncn(COC(CO)CO)c2n1 [GCV, ganciclovir]
[3]; 100 μM GCV, 3 d, methylene blue
  reduction of cell growth: 50%
[3]; Homo sapiens, HEK293, 90 h, average ± s.d. of 4 profiles, read-out: IC50 growth inhibition, average
  IC50: 26 ± 11 µM
[3]; read-out: individual IC50 profiles (averages of triplicates)
  IC50: 41 µM and 19 µM and 17 µM
[4]; Homo sapiens, HEK293, non-transfected 293 cells
  IC50: 3700 µM
[4]; up to 100 μM GCV
  effect on proliferation of wild-type 293 cells: not affected
